The NIST ThermoML archive (doi:10.1016/j.fluid.2014.06.029)
± gives the expanded uncertainty stated by the source.

Details: Liquid, Ebulliometric method (Recirculating still)

| SMILES | vapor or sublimation pressure (283.15 K) [kPa] | vapor or sublimation pressure (293.15 K) [kPa] | vapor or sublimation pressure (303.15 K) [kPa] | vapor or sublimation pressure (313.15 K) [kPa] | vapor or sublimation pressure (323.15 K) [kPa] |
| --- | --- | --- | --- | --- | --- |
| CI [iodomethane] | 30 ± 10 | 47.5 ± 10 | 69.9 ± 10 | 95 ± 10 | 129 ± 10 |
| COC [dimethyl ether] | 372 ± 10 | 501 ± 10 | 687 ± 10 | 898 ± 10 | 1116.2 ± 10 |
